Results published in patent publication US20110318393A1, “Substituted Pyrazole Compounds” (MIIKANA THERAPEUTICS, INC., priority 2008, published 2011).

Key:
[1] = target: T1, N-terminal His-tagged human Src (Homo sapiens, UniProt P12931); experiment: Src kinase inhibition assay (33P-ATP filter assay); type: biochemical; conditions: 40 minutes, room temperature; less than or equal to 100 nM
T1 construct: His (N); purchased Upstate USA Inc, Charlottesville, Va
Protocol: (§1) Compounds were assayed for Src kinase inhibitory activity using N-terminal His-tagged human Src (Upstate USA Inc, 706 Forest Street, Charlottesville, Va.). Serial dilutions of compound were assayed in a final reaction volume of 25 μL by incubating a solution of the above Src kinase (5-10 mU), 8 mM MOPS (3-(N-morpholino)propanesulfonic acid) pH 7.0, 0.2 mM EDTA (ethylenediamine tetracetic acid), 250 μM amino acid sequence KVEKIGEGTYGVVYK (Upstate USA Inc, 706 Forest Street, Charlottesville, Va.), and 10 mM magnesium acetate and [γ-^33P-ATP] (specific activity of about 500 cpm/pmol, concentration as required). The reaction was initiated by the addition of the magnesium acetate and [γ-^33P-ATP] mixture. After incubation for 40 minutes at room temperature, the reaction was stopped by the addition of 5 μL of a 3% phosphoric acid solution. A 10 μL aliquote of the reaction was then spotted onto a P30 filtermat (PerkinElmer, Wellesley, Mass.) and washed three times for five minutes in 75 mM phosphoric acid and once in methanol prior to drying and scintillation counting. Inhibition of Src activity was determined by comparison to assays that contained no inhibitor.

HCT-116 cell growth = experiment: Whole cell cytotoxicity assay: Sulforhodamine B; type: cell-based; conditions: Homo sapiens, HCT116, 96 hours, SRB staining, less than or equal to 100 nM
Protocol: Human tumor-derived cell lines, HCT116 or MCF7 (ATCC) were plated in a 96 well plate in DMEM containing 10% fetal bovine serum and 2 mM L-glutamine at a density of 500 HCT116 cells or 1,000 MCF7 cells per well and incubated at 37° C., 5% CO2, for 24 hours prior to the addition of experimental compounds. Compounds were added using the dilution series indicated to duplicate plates and the cells were incubated in media plus compound for 96 hours. An additional plate was fixed in 10% TCA at the time of the addition of compound to provide a measurement of the cell population at time zero, the time of drug addition. […] The absorbance was read at 570 nm. Percentage growth was calculated using the absorbance readings from the time zero plate (Tz) and the dilution series plate […] which included a column of cells grown in media without compound as a control (C) using the formulas: […]
Three dose response parameters were calculated for each experimental agent. […] The drug concentration resulting in total growth inhibition (TGI) was calculated from Ti=Tz. […] Values are calculated for each of these three parameters if the level of activity was reached; however, if the effect was not reached or was exceeded, the value for that parameter is expressed as greater or less than the maximum or minimum concentration tested.

[2] = target: T2, N-terminal His6-tagged recombinant human KDR, residues 790-end (Homo sapiens, UniProt P35968); experiment: KDR kinase inhibition assay (33P-ATP filter assay); type: biochemical; conditions: 40 minutes, room temperature; less than or equal to 100 nM
T2 construct: recombinant human KDR, residues 790-end; His6 (N); purchased Upstate USA Inc, Charlottesville, Va
T2 sequence (P35968 790-1356 limits assumed): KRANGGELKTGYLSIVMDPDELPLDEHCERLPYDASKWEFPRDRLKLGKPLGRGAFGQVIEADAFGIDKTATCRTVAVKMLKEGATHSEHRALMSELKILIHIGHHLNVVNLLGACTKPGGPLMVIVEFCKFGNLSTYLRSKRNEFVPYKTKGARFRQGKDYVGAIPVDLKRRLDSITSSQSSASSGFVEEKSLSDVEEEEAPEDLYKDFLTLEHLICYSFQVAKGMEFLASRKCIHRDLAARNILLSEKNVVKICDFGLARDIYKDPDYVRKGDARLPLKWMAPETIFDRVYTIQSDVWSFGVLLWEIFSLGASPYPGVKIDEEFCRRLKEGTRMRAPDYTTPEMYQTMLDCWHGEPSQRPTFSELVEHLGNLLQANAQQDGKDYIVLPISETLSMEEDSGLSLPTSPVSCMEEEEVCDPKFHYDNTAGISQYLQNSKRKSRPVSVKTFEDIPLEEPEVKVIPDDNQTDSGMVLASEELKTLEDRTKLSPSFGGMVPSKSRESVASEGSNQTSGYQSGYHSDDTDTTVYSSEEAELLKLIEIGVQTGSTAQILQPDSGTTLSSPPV
Protocol: as §1, with “for KDR” for “for Src”, “N-terminal His6-tagged recombinant” for “N-terminal His-tagged”, “human KDR, residues 790-end” for “human Src”, “above KDR” for “above Src”, “acid), 0.33 mg/mL myelin basic protein” for “acid), 250 μM amino acid sequence KVEKIGEGTYGVVYK”, “of KDR” for “of Src”

Measured: IC50

T1 sequence (P12931 whole entry): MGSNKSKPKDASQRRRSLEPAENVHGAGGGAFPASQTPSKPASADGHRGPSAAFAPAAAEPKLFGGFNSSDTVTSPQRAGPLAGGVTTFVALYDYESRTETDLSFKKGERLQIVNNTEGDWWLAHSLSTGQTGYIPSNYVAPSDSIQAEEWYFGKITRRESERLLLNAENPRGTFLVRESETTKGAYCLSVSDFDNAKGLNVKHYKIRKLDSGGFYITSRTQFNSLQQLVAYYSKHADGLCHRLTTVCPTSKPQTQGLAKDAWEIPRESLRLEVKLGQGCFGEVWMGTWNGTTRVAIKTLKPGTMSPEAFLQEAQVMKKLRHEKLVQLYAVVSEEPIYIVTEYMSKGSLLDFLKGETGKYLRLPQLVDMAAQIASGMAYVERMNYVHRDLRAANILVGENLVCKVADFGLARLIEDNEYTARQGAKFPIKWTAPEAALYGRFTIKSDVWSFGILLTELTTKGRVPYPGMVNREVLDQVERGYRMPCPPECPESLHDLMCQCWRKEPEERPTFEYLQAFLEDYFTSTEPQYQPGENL

Cc1cc(Nc2cc(N3CCC(N4CCCCC4)CC3)nc(/C=C/c3ccccc3)n2)n[nH]1 [Compound 5, (E)-6-(1,4′-bipiperidin-1′-yl)-N-(5-methyl-1H-pyrazol-3-yl)-2-styrylpyrimidin-4-amine]
≤ 0.1 µM: all assays above

Cc1cc(Nc2cc(N3CCN(c4ccncc4)CC3)nc(/C=C/c3ccccc3)n2)n[nH]1 [Compound 22, (E)-N-(5-methyl-1H-pyrazol-3-yl)-6-(4-(pyridin-4-yl)piperazin-1-yl)-2-styrylpyrimidin-4-amine]
≤ 0.1 µM: all assays above
